Assay results as given in US11771086B2, “Pest control composition including novel iminopyridine derivative” (priority 2012, dated 2023).
Several values for one entry are separate records, joined by “and”; a condition that tells them apart may be missing. Identical values can stand only once. Like-named read-outs stand apart in the source and are kept apart here.

Assays:
Spodoptera litura = assay: Reference Test Example 2 Pest control test of Spodoptera litura (foliar treatment, single agent); format: in vivo; settings: 72 h
Source text: After an air drying process, third instar larvae were released thereto. […] Test in duplicate.

Aphis gossypii [1] = assay: Reference Test Example 3 Pest control test of Aphis gossypii (foliar treatment, single agent); format: in vivo; settings: Aphis gossypii, foliar, 72 h
Description: After an air drying process, first instar larvae were released thereto. Thereafter, the larvae were left to stand in a thermostatic chamber (16 hours of light period-8 hours of dark period) at 25° C. […] Test in duplicate. Mortality (%)={number of dead larvae/(number of survived larvae+number of dead larvae)}×100

Laodelphax striatella [2] = assay: Reference Test Example 4 Pest control test of Laodelphax striatella (foliar treatment, single agent); format: in vivo; settings: Laodelphax striatellus, 72 h
Source text: (§1) After an air drying process, second instar larvae were released thereto. […] Test in duplicate.

Nilaparvata lugens = assay: Reference Test Example 5 Pest control test of Nilaparvata lugens (foliar treatment, single agent); format: in vivo; settings: 144 h
Source text: as §1

Sogatella furcifera = assay: Reference Test Example 6 Pest control test of Sogatella furcifera (foliar treatment, single agent); format: in vivo; settings: 96 h
Source text: as §1

Nephotettix cincticeps = assay: Reference Test Example 7 Pest control test of Nephotettix cincticeps (foliar treatment, single agent); format: in vivo; settings: 96 h
Source text: as §1

[3] = tested on: Trialeurodes vaporariorum; assay: Reference Test Example 8 Pest control test of Trialeurodes vaporariorum (leaf disk spray on eggs); format: in vivo; settings: foliar
Source text: Adult greenhouse whiteflies were released to a cucumber in pot culture and allowed to lay eggs overnight. […] Test in duplicate. Mortality of larvae (%)={(number of eggs laid−number of survived larvae)/number of eggs laid)}×100

[4] = tested on: Trigonotylus caelestialium; assay: Reference Test Example 10 Pest control test of Trigonotylus caelestialium (dipping treatment); format: in vivo; settings: 72 h
Description: After an air drying process, the wheat seedling leaves and stems were placed into a glass tube, and two second instar larvae of Trigonotylus coelestialium were released to the same glass tube. After the larvae were released, the tube was lidded to leave the larvae to stand in a thermostatic chamber at 25° C. In order to supply water to the wheat during the test, water was given to the wheat from the bottom of the glass tube. […] Test in triplicate.

[5] = tested on: Nilaparvata lugens susceptible species (highly susceptible to imidacloprid); assay: Reference Test Example 19 Pest control test of Nilaparvata lugens, imidacloprid susceptible species (soil drench); format: in vivo; settings: for Insecticidal effects against Nilaparvata lugens (death rate %), Susceptible population: soil drench, six days
Description: (§2) Three days after the treatment, ten second instar larvae of Nilaparvata lugens, which had been collected outdoors and proliferated indoors, were each released to the rice seedling. […] Test in duplicate.
(§3) Furthermore, for comparison, the test against a species of Nilaparvata lugens which is highly susceptible to imidacloprid was performed by the same method as described above, and the results thereof are shown in Table 45. […] Meanwhile, the death rates of imidacloprid at 0.05 mg/seedling were (susceptible species) 100%, (resistant population I) 38% and (resistant population II) 69%, and the insecticidal effect thereof was also low even at a high dose. From the above results, it became obvious that Compound P212 and Compound 1-20 have high insecticidal effects even against Nilaparvata lugens resistance against imidacloprid.
(§4) Further, for the origin of test pests, bugs collected outdoors from the Kumamoto prefecture (I) in 2007 and from the Fukuoka prefecture (II) in 2005 as resistant population of Nilaparvata lugens, and bugs collected from the Kagoshima prefecture and then successively reared indoors for a long time as the imidacloprid susceptible population of Nilaparvata lugens were used.

[6] = tested on: Nilaparvata lugens resistant population I; assay: Reference Test Example 19 Pest control test of Nilaparvata lugens, resistant population I (soil drench); format: in vivo; settings: for Insecticidal effects against Nilaparvata lugens (death rate %), Resistant population I: soil drench, six days
Description: as §2, §3, §4

[7] = tested on: Nilaparvata lugens resistant population II; assay: Reference Test Example 19 Pest control test of Nilaparvata lugens, resistant population II (soil drench); format: in vivo; settings: for Insecticidal effects against Nilaparvata lugens (death rate %), Resistant population II: soil drench, six days
Description: as §2, §3, §4

Laodelphax striatella [8] = assay: whole plant or invertebrate; format: in vivo
Description: (§5) After an air drying process, second instar larvae were released thereto. […] The test was performed in duplicate.
(§6) Method for Judging Synergistic Effects

Plutella xylostella = assay: whole plant or invertebrate; format: in vivo
Description: as §5, §6

Aphis gossypii [9] = assay: whole plant or invertebrate; format: in vivo; settings: Aphis gossypii
Description: The test was performed in duplicate.
as §6

[10] = tested on: Frankliniella occidentalis; assay: whole plant or invertebrate; settings: Frankliniella occidentalis
Description: After an air drying process, first instar larvae were released thereto. Thereafter, the larvae were left to stand in a thermostatic chamber (16 hours of light period-8 hours of dark period) at 25° C. […] The test was performed in duplicate. Mortality of larvae (%)={number of dead larvae/(number of survived larvae+number of dead larvae)}×100
(A: 100−(mortality of larvae or adults when treated only with Compound P212)
B: 100−(mortality of larvae or adults when treated with only the insecticide imidacloprid, dinotefuran, or acetamiprid))
as §6
When the mortality against Frankliniella occidentalis in the case of a mixture with another agent exceeded the theoretical value given by Colby's equation, a synergistic effect was judged to be present.

Chilo suppressalis = format: in vivo; settings: for Theoretical value by Colby's equation: Chilo suppressalis; for Mortality of single agent against Chilo suppressalis: soil irrigation, six days after release
Description: After standing for 3 days, second instar larvae were released thereto. […] The test was performed in duplicate.
as §6

Callosobruchus chinensis = format: in vivo
Description: A compound of Formula (I) and the insecticide indicated below, prepared in predetermined concentrations using acetone, were separately topically applied to the back of the same adult Callosobruchus chinensis. […] The test was performed in duplicate. Insect mortality (%)={number of dead insects/(number of survived insects+number of dead insects)}×100
(A: 100−(insect mortality for treatment with only Compound P212)
B: 100−(insect mortality for treatment with only the insecticide fipronil or imidacloprid))
as §6

Rhizoctonia solani = assay: Test Example 12 Test of control of rice sheath blight (Rhizoctonia solani); format: in vivo; settings: single agent 50 ppm; foliar spray; six days after inoculation
Laodelphax striatellus = assay: Test Example 14 Test with Laodelphax striatellus by soil irrigation treatment (mixture with paddy herbicide); format: in vivo; settings: five days after release
Description: After standing for three days, second instar larvae were released thereto. […] The test was performed in duplicate.

[11] = foliar, 72 h, read-out: Mortality of single agent against Frankliniella occidentalis

## O=C(N=c1ccccn1Cc1ccc(Cl)nc1)C(F)(F)F [Compound P212, N-[1-((6-chloropyridin-3-yl)methyl)pyridin-2(1H)-ylidene]-2,2,2-trifluoroacetamide]
Spodoptera litura
  mortality at 500 ppm: ≥ 80%
Aphis gossypii [1]
  mortality at 100 ppm: ≥ 80%
Laodelphax striatella [2]
  mortality at 100 ppm: ≥ 80%
Nilaparvata lugens
  mortality at 100 ppm: ≥ 80%
Sogatella furcifera
  mortality at 100 ppm: ≥ 80%
Nephotettix cincticeps
  mortality at 100 ppm: ≥ 80%
[3]
  mortality at 100 ppm: ≥ 80%
[4]
  mortality at 50 ppm: ≥ 80%
[5]; susceptible species, 0.005 mg/seedling, six days after the release
  death rates of larvae: 100%
[5]; throughput 0.005 mg/seedling
  Insecticidal effects against Nilaparvata lugens (death rate %), Susceptible population: 100%
[5]; throughput 0.05 mg/seedling
  Insecticidal effects against Nilaparvata lugens (death rate %), Susceptible population: 100%
[6]; resistant population I, 0.005 mg/seedling, six days after the release
  death rates of larvae: 95%
[6]; throughput 0.005 mg/seedling
  Insecticidal effects against Nilaparvata lugens (death rate %), Resistant population I: 95%
[6]; throughput 0.05 mg/seedling
  Insecticidal effects against Nilaparvata lugens (death rate %), Resistant population I: 100%
[7]; resistant population II, 0.005 mg/seedling, six days after the release
  death rates of larvae: 100%
[7]; throughput 0.005 mg/seedling
  Insecticidal effects against Nilaparvata lugens (death rate %), Resistant population II: 100%
[7]; throughput 0.05 mg/seedling
  Insecticidal effects against Nilaparvata lugens (death rate %), Resistant population II: 100%
Laodelphax striatella [8]; Laodelphax striatella foliar, single agent 0.625 ppm (other component 0)
  Theoretical value by Colby's equation: 95%
Laodelphax striatella [8]; Laodelphax striatellus, foliar, 72 h, read-out: Mortality of single agent against Laodelphax striatella
  mortality at 0.625 ppm: 95%
Plutella xylostella; Plutella xylostella, foliar, 72 h, read-out: Mortality of single agent against Plutella xylostella, single agent 1.0 ppm, cabbage leaf disk spray, three days
  mortality at 1 ppm: 40%
Plutella xylostella; Plutella xylostella, foliar, 72 h, read-out: Mortality of single agent against Plutella xylostella, single agent 1.25 ppm, cabbage leaf disk spray, three days
  mortality at 1.25 ppm: 0%
Plutella xylostella; Plutella xylostella, foliar, 72 h, read-out: Mortality of single agent against Plutella xylostella, single agent 2.0 ppm, cabbage leaf disk spray, three days
  mortality at 2 ppm: 60%
Plutella xylostella; Plutella xylostella, single agent 1.0 ppm (other component 0)
  Theoretical value by Colby's equation: 40% and 30%
Plutella xylostella; Plutella xylostella, single agent 1.25 ppm (other component 0)
  Theoretical value by Colby's equation: 0%
Plutella xylostella; Plutella xylostella, single agent 2.0 ppm (other component 0)
  Theoretical value by Colby's equation: 60% and 50%
Plutella xylostella; single agent 1.0 ppm, cabbage leaf disk spray, three days
  Mortality of single agent against Plutella xylostella: 30%
Plutella xylostella; single agent 2.0 ppm, cabbage leaf disk spray, three days
  Mortality of single agent against Plutella xylostella: 50%
Aphis gossypii [9]; foliar, 72 h, read-out: Mortality of single agent against Aphis gossypii
  mortality at 0.313 ppm: 45%
Aphis gossypii [9]; single agent 0.313 ppm (other component 0)
  Theoretical value by Colby's equation: 45%
[10]; [11]
  mortality at 10 ppm: 69%
  mortality at 20 ppm: 70%
[10]; single agent 10 ppm (other component 0)
  Theoretical value by Colby's equation: 69%
[10]; single agent 20 ppm (other component 0)
  Theoretical value by Colby's equation: 70%
Chilo suppressalis; single agent 0.002 mg/seedling (other component 0)
  Theoretical value by Colby's equation: 40%
Chilo suppressalis; single agent 0.01 mg/seedling (other component 0)
  Theoretical value by Colby's equation: 33%
Chilo suppressalis; single agent 0.002 mg/seedling
  Mortality of single agent against Chilo suppressalis: 40%
Chilo suppressalis; single agent 0.01 mg/seedling
  Mortality of single agent against Chilo suppressalis: 33%
Callosobruchus chinensis; Callosobruchus chinensis, single agent 0.2 ng/head (other component 0)
  Theoretical value by Colby's equation: 20%
Callosobruchus chinensis; single agent 0.2 ng/head, topical, one day
  Mortality of single agent against Callosobruchus chinensis: 20%
Rhizoctonia solani
  Preventive value (Sheath blight test, lesion height): 14 and 9
Laodelphax striatellus; single agent 0.005 mg/seedling
  Mortality of larvae (Laodelphax striatellus): 0%
Laodelphax striatellus; single agent 0.01 mg/seedling
  Mortality of larvae (Laodelphax striatellus): 100%
